This passage reports Ki results from ChEMBL document CHEMBL3758093, “Sulfonamide inhibition studies of the β-carbonic anhydrase from the pathogenic bacterium Vibrio cholerae” (Bioorg Med Chem, 2016).

The assay has as its target Carbonic anhydrase 1 (Homo sapiens, UniProt P00915).

Chain of Carbonic anhydrase 1 (P00915 whole entry): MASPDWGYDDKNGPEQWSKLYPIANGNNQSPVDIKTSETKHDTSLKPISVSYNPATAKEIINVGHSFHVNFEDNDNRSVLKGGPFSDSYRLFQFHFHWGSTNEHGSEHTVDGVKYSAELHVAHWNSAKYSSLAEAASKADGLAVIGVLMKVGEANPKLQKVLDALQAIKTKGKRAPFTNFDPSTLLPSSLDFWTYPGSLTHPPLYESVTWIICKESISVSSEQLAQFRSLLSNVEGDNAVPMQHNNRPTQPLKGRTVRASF

One may read the Ki as the dissociation constant of the complex between target and ligand, obtained from inhibition or displacement. `NS(=O)(=O)c1cccc(S(N)(=O)=O)c1` displayed a Ki of 28 µM.
